Source: ChEMBL document CHEMBL3045277, “Synthesis and biological activity of novel 1H-1,4-diazepines containing benzene sulfonyl piperazine moiety” (2011)

How the values were obtained:
Format in all cases: functional
Candida albicans = test: Antifungal activity against Candida albicans by cup-plate method
Aspergillus niger = test: Antifungal activity against Aspergillus niger by cup-plate method
Metaphire posthuma [1] = test: Antihelminthic activity against Metaphire posthuma assessed as time of occurrence of paralysis
Metaphire posthuma [2] = test: Antihelminthic activity against Metaphire posthuma assessed as time of occurrence of death
Klebsiella pneumoniae = test: Antibacterial activity against Klebsiella pneumoniae by cup-plate method
Staphylococcus aureus = test: Antibacterial activity against Staphylococcus aureus by cup-plate method

SMILES	inhibition zone (IZ) (Candida albicans)	inhibition zone (IZ) (Aspergillus niger)	Time (Metaphire posthuma [1])	Time (Metaphire posthuma [2])	inhibition zone (IZ) (Klebsiella pneumoniae)	inhibition zone (IZ) (Staphylococcus aureus)
Cc1cc(C2CCCCC2)n(O)c(=O)c1.NCCO [CICLOPIROX OLAMINE]	24 mm	22 mm				
C1CNCCN1.C1CNCCN1.C1CNCCN1.O.O=C(O)CC(O)(CC(=O)O)C(=O)O.O=C(O)CC(O)(CC(=O)O)C(=O)O [PIPERAZINE CITRATE]			100 min	125 min		
CC(=O)Nc1ccc(S(=O)(=O)N2CCN(CCCC3C(=O)NCCNC3=O)CC2)cc1	13 mm	15 mm	103 min	122 min	15 mm	13 mm
CC(=O)Nc1ccc(S(=O)(=O)N2CCN(CCCC3C(c4ccccc4)=NCCN=C3c3ccccc3)CC2)cc1	19 mm	18 mm	93 min	110 min	19 mm	17 mm
CC(=O)Nc1ccc(S(=O)(=O)N2CCN(CCCC3C(C)=NCCN=C3c3ccccc3)CC2)cc1 (stereo unspecified)	20 mm	20 mm	91 min	111 min	19 mm	20 mm
CC(=O)Nc1ccc(S(=O)(=O)N2CCN(CCCC3C(=O)NCCN=C3C)CC2)cc1 (stereo unspecified)	16 mm	17 mm	102 min	119 min	17 mm	16 mm
O=C(O)c1cn(C2CC2)c2cc(N3CCNCC3)c(F)cc2c1=O [CIPROFLOXACIN]					26 mm	24 mm
CC(=O)Nc1ccc(S(=O)(=O)N2CCN(CCCC3C(C)=NCCN=C3C)CC2)cc1	21 mm	19 mm	92 min	103 min	21 mm	19 mm
